# Experimental data as given in patent US11230526B1, “Cylcoalkenyl derivatives useful as agonists of the GPR120 and/or GPR40 receptors” (Janssen Pharmaceutica NV, priority 2018, dated 2022).
# pEC50: −log10 of the molar value.
# What was measured:
# [1] = molecular target: T1, Human GPR120 short form (Homo sapiens, UniProt Q5NUL3); assay: Human GPR120 calcium flux assay, Procedure Calcium B (4200 cells/well); assay type: cell-based
# T1 construct: expressed in transfected cells
# T1 sequence (Q5NUL3 1-361): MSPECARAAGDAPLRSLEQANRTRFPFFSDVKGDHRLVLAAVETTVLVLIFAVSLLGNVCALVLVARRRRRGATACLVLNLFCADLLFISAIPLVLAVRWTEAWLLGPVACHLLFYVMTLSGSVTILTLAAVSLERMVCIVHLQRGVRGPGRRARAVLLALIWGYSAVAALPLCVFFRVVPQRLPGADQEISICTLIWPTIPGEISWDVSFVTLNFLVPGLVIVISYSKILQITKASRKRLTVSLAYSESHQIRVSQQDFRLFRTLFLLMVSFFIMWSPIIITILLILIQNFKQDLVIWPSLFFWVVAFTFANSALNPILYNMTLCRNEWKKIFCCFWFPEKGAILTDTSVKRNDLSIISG
# Outline: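 Agonist EC50 came from a four-parameter fit of RFU (Fmax−Fmin) read over 300 s on FLIPR. Cells were HEK293 stably transfected with human GPR120 (NM_001195755.1) at 4200 per well, serum-starved 1 h and loaded with Fluo-4 NW dye with probenecid before ligand addition.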
# [2] = molecular target: T2, human GPR40 (Homo sapiens, UniProt O14842); assay: GPR40 calcium flux assay, human GPR40; assay type: cell-based; conditions: HEK293 cells stably expressing GPR40; table does not say human or rat
# T2 construct: expressed in transfected cells
# Outline: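 Cells preincubated 1 h at 37° C. in HBSS, 20 mM HEPES, 0.1% BSA, then Fluo 8 calcium dye 30 min at 37° C. and 15 min at room temperature.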
# T2 sequence (O14842 whole entry): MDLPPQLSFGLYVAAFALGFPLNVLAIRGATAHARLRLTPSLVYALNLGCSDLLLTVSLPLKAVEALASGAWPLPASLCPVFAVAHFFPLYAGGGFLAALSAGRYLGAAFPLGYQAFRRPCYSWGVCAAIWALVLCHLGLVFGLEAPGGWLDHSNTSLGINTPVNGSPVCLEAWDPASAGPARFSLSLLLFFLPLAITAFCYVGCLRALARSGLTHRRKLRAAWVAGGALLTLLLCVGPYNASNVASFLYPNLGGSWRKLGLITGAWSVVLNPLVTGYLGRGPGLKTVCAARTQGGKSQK
pEC50 [1],pEC50 [2],SMILES
6.68,5.95,"Cc1ccc(C2=C(COc3ccc(CCC(=O)O)c(Cl)c3)CCC2)cc1 [Compound 310, 3-[2-chloro-4-[[2-(p-tolyl)cyclopenten-1-yl]methoxy]phenyl]Propanoic Acid]"
5.63,7.24,"Cc1ccc(CC2=C(COc3ccc(CCC(=O)O)c(Cl)c3)CCC2)cc1 [Compound 348, 3-[2-chloro-4-[[2-(p-tolylmethyl)cyclopenten-1-yl]methoxy]phenyl]Propanoic Acid]"
5.91,< 5.30,"O=C(O)CCc1cc(Br)c(OCC2=C(c3ccc(Cl)cc3)CCC2)c(Br)c1C(F)(F)F [Compound 101, 3-[3,5-dibromo-4-[[2-(4-chlorophenyl)cyclopenten-1-yl]methoxy]-2-(trifluoromethyl)phenyl]Propanoic Acid]"
5.89,6.64,"Cc1ccc(CC2=C(COc3ccc(CCC(=O)O)cc3)CCC2)cc1 [Compound 346, 3-[4-[[2-(p-tolylmethyl)cyclopenten-1-yl]methoxy]phenyl]Propanoic Acid]"
6.16,6.00,"[2H]C([2H])([2H])c1ccc(C2=C(COc3ccc(CCC(=O)O)c(C(F)(F)F)c3)CCC2)cc1 [Compound 268-D, 3-[4-[[2-[4-(trideuteriomethyl)phenyl]cyclopenten-1-yl]methoxy]-2-(trifluoromethyl)phenyl]Propanoic Acid]"
6.82,7.52,"O=C(O)CCc1ccc(OCC2=C(C3CCCC3)CC(F)(F)C2)cc1C(F)(F)F [Compound 407, 3-[4-[(2-cyclopentyl-4,4-difluoro-cyclopenten-1-yl)methoxy]-2-(trifluoromethyl)phenyl]Propanoic Acid]"
6.29,6.49,"O=C(O)CCc1ccc(OCC2=C(c3cc(Cl)ccc3F)CCC2)cc1Cl [Compound 342, 3-[2-chloro-4-[[2-(5-chloro-2-fluoro-phenyl)cyclopenten-1-yl]methoxy]phenyl]Propanoic Acid]"
6.15,7.92,"CC(C)CC1=C(COc2ccc(CCC(=O)O)c(C(F)(F)F)c2)CCC1 [Compound 385, 3-(4-((2-isobutylcyclopent-1-en-1-yl)methoxy)-2-(trifluoromethyl)phenyl)Propanoic Acid]"
< 5.30,5.81,"O=C(O)CCc1ccc(OCC2=C(C3CC4CCC3C4)CCCC2)cc1C(F)(F)F (stereo not shown) [Compound 592, 3-[4-[(2-norbornan-2-ylcyclohexen-1-yl)methoxy]-2-(trifluoromethyl)phenyl]Propanoic Acid]"
5.61,6.79,"CC1CCC(COc2ccc(CCC(=O)O)c(C(F)(F)F)c2)=C1c1ccc(Cl)cc1 (stereo not shown) [Compound 316, 3-[4-[[2-(4-chlorophenyl)-3-methyl-cyclopenten-1-yl]methoxy]-2-(trifluoromethyl)phenyl]Propanoic Acid]"
5.87,6.50,"CCCC1=C(COc2ccc(CCC(=O)O)c(C(F)(F)F)c2)CCCC1 [Compound 590, 3-[4-[(2-propylcyclohexen-1-yl)methoxy]-2-(trifluoromethyl)phenyl]Propanoic Acid]"
6.74,8.00,"O=C(O)CCc1ccc(OCC2=C(C3C=CCC3)CCC2)cc1C(F)(F)F (stereo not shown) [Compound 453, 3-[4-[(2-cyclopent-2-en-1-ylcyclopenten-1-yl)methoxy]-2-(trifluoromethyl)phenyl]Propanoic Acid]"
5.65,6.10,"Cc1ccc(C2=C(COc3cc(C)c(CCC(=O)O)cc3F)CCC2)c(C)c1 [Compound 244, 3-[4-[[2-(2,4-dimethylphenyl)cyclopenten-1-yl]methoxy]-5-fluoro-2-methyl-phenyl]Propanoic Acid]"
6.31,5.45,"COc1ccc(C2=C(COc3cc(C)c(CCC(=O)O)cc3F)CCC2)cc1 [Compound 279, 3-[5-fluoro-4-[[2-(4-methoxyphenyl)cyclopenten-1-yl]methoxy]-2-methyl-phenyl]Propanoic Acid]"
6.21,6.32,"O=C(O)CCc1ccc(OCC2=C(c3ccccc3)CCC2)cc1C(F)(F)F [Compound 258, 3-[4-[(2-phenylcyclopenten-1-yl)methoxy]-2-(trifluoromethyl)phenyl]Propanoic Acid]"
6.33,< 5.30,"O=C(O)CCc1cc(Cl)c(OCC2=C(c3ccc(F)cc3)CC(F)(F)C2)c(Cl)c1 [Compound 205, 3-[3,5-dichloro-4-[[4,4-difluoro-2-(4-fluorophenyl)cyclopenten-1-yl]methoxy]phenyl]Propanoic Acid]"
< 5.30,5.91,"O=C(O)CCc1ccc(OCC2=C(C3CC3)CCC2)cc1C(F)(F)F [Compound 351, 3-[4-[(2-cyclopropylcyclopenten-1-yl)methoxy]-2-(trifluoromethyl)phenyl]Propanoic Acid]"
6.56,6.93,"O=C(O)CCc1cc(F)c(OCC2=C(C3CCCC3)CCC2)cc1Cl [Compound 450, 3-[2-chloro-4-[(2-cyclopentylcyclopenten-1-yl)methoxy]-5-fluoro-phenyl]Propanoic Acid]"
5.96,5.52,"COC1CCC(c2ccc(C)cc2)=C(COc2ccc(CCC(=O)O)c(C(F)(F)F)c2)C1 (stereo not shown) [Compound 577, 3-[4-[[5-methoxy-2-(p-tolyl)cyclohexen-1-yl]methoxy]-2-(trifluoromethyl)phenyl]Propanoic Acid]"
6.56,5.96,"Cc1cc(OCC2=C(c3ccc(F)cc3)CC(F)(F)C2)c(F)cc1CCC(=O)O [Compound 402, 3-[4-[[4,4-difluoro-2-(4-fluorophenyl)cyclopenten-1-yl]methoxy]-5-fluoro-2-methyl-phenyl]Propanoic Acid]"
< 5.30,5.89,"Cc1cc(OCC2=C(c3ccccc3C)CCC2)c(F)cc1CCC(=O)O [Compound 262, 3-[5-fluoro-2-methyl-4-[[2-(o-tolyl)cyclopenten-1-yl]methoxy]phenyl]Propanoic Acid]"
6.40,6.75,"CCCCC1=C(COc2ccc(CCC(=O)O)c(C(F)(F)F)c2)CCCC1 [Compound 598, 3-[4-[(2-butylcyclohexen-1-yl)methoxy]-2-(trifluoromethyl)phenyl]Propanoic Acid]"
< 5.30,6.01,"Cc1cc(OCC2=C(Cc3ccc(Cl)cc3)CCC2)c(F)cc1CCC(=O)O [Compound 360, 3-[4-[[2-[(4-chlorophenyl)methyl]cyclopenten-1-yl]methoxy]-5-fluoro-2-methyl-phenyl]Propanoic Acid]"
5.50,6.45,"Cc1ccc(C2=C(COc3ccc(CCC(=O)O)c(Cl)c3)CCC2)c(C)c1 [Compound 246, 3-[2-chloro-4-[[2-(2,4-dimethylphenyl)cyclopenten-1-yl]methoxy]phenyl]Propanoic Acid]"
6.84,6.08,"O=C(O)CCc1ccc(OCC2=C(c3ccccc3)CC(F)(F)C2)cc1Cl [Compound 242, 3-[2-chloro-4-[(4,4-difluoro-2-phenyl-cyclopenten-1-yl)methoxy]phenyl]Propanoic Acid]"
5.72,7.22,"O=C(O)CCc1ccc(OCC2=C(Cc3ccc(F)cc3)CCC2)cc1Cl [Compound 349, 3-[2-chloro-4-[[2-[(4-fluorophenyl)methyl]cyclopenten-1-yl]methoxy]phenyl]Propanoic Acid]"
5.66,5.37,"CCc1ccc(C2=C(COc3ccc(CCC(=O)O)c(Cl)c3)CCC2)cc1 [Compound 293, 3-[2-chloro-4-[[2-(4-ethylphenyl)cyclopenten-1-yl]methoxy]phenyl]Propanoic Acid]"
5.65,6.58,"O=C(O)CCc1ccc(OCC2=C(c3ccc(C(F)(F)F)cc3)CCC2)cc1Cl [Compound 272, 3-[2-chloro-4-[[2-[4-(trifluoromethyl)phenyl]cyclopenten-1-yl]methoxy]phenyl]Propanoic Acid]"
< 5.30,6.82,"Cc1cccc(CC2=C(COc3ccc(CCC(=O)O)c(Cl)c3)CCC2)c1 [Compound 406, 3-[2-chloro-4-[[2-(m-tolylmethyl)cyclopenten-1-yl]methoxy]phenyl]Propanoic Acid]"
